Like-named read-outs stand apart in the source and are kept apart here.
Tests used:
[1] = system: women with locally advanced or metastatic breast cancer; settings: for effect on OS / relative reduction for TTP: GD v D; for relative reduction in mortality from the addition of gemcitabine to docetaxel compared to docetaxel alone: patients with basal-like subtype (PAM50)
Procedure: Patients were randomly assigned to docetaxel (100 mg/m^2) day 1, every 21 days or gemcitabine (1000 mg/m^2) days 1 and 8 plus docetaxel (75 mg/m^2) day 8. Patients were either previously untreated, had prior anthracycline-based (neo)adjuvant chemotherapy or had received a single prior anthracycline-based chemotherapy regimen for metastatic breast cancer. The Danish Breast Cancer Cooperative Group (DBCG) prepared the original protocol as well as the biomarker supplement, and the Danish National Committee on Biomedical Research Ethics has approved the original protocol as well as the add-on (KF 02-045-01 and H-KF-02-045-01) before their activation. Time to progression (TTP) was the primary endpoint for the original trial as well as this biomarker sub-study (Nielsen et al., JCO 2011; 29:4748-4754). Overall survival (OS) and response rate (RR) were secondary endpoints. TTP was measured from random assignment to date of documented progression with censoring at date of last visit or of death. OS was calculated from date of random assignment to date of death with censoring for surviving patients at last visit date. Time-to-event endpoints (TTP and OS) were estimated by the Kaplan-Meier method, and PAM50 subtypes were compared using the log-rank test. Analyses of PAM50 subtypes were done unadjusted and adjusted for preselected covariates in multivariate Cox proportional hazards models. […] The adjusted model was further stratified for previous chemotherapy (Nielsen et al., JCO 2011; 29:4748-4754). The assumption of proportional hazards was assessed by Schoenfeld residuals. Analyses were done to assess whether treatment effects on TTP and OS varied according to PAM50 subtypes or the levels of preselected variables. The multivariate Cox proportional hazards model was extended by one interaction term at a time. The interaction terms were tested using the Wald test and results were given in a Forest plot. RR was evaluated for patients with measurable disease. […] RRs were compared by using Fisher's exact test.

[2] = system: women with locally advanced or metastatic breast cancer; settings: original trial, 337 women, GD v D; cited from earlier work

Q: With gemcitabine plus docetaxel [GD] as the substance, how does the “gain in median overall survival, doublet arm compared to monotherapy arm” value ([1]; basal-like patients, Kaplan-Meier estimates) read?
A: 10 months

Q: What about the “effect on TTP across PAM50 intrinsic subtypes” value ([1]; multivariate Cox regression, interaction test) of the same substance?
A: TTP seemed equally improved in PAM50 intrinsic subtypes

Q: And the “effect on OS” value ([1]; patients with HER2-enriched subtype)?
A: significantly worsened OS

Q: What about the “risk of TTP events and mortality in the doublet arm compared to single agent docetaxel” value ([1]; patients with HER2 amplified tumors) of the same substance?
A: higher risk of TTP events

Q: And the “effect on OS” value ([1]; patients with basal-like breast cancer)?
A: significantly improved OS

Q: What about the “effect on OS” value ([1]; patients with basal-like breast cancer, listed as gemcitabine and docetaxel) of the same substance?
A: more substantial reduction in mortality

Q: And the “relative reduction in mortality from the addition of gemcitabine to docetaxel compared to docetaxel alone” value [1]?
A: 71%

Q: And the “relative reduction in mortality from the addition of gemcitabine to docetaxel compared to docetaxel alone” value ([1]; listed as gemcitabine plus docetaxel)?
A: 73%

Q: What about the “relative reduction for TTP” value ([1]; patients with basal-like subtype) of the same substance?
A: 63%

Q: And the “benefit from adding gemcitabine to docetaxel” value ([1]; patients with highly proliferative subtypes (non-luminal A))?
A: No support was found for a more general benefit

Q: What about the “survival benefit compared with docetaxel monotherapy” value ([1]; patients with non-basal-like subtypes) of the same substance?
A: no significant incremental survival benefit

Q: What about the “relative reduction for TTP” value ([1]; patients with other (non-basal-like) subtypes) of the same substance?
A: 37%

Q: What about the “HR for OS, treatment effect in the original study” value [2] of the same substance?
A: 0.94

Q: What about the “HR for TTP, treatment effect in the original study” value [2] of the same substance?
A: 0.68
